Laboratory results as given in patent publication US5654274A, “Biologically active peptides having N-terminal substitutions” (priority 1995, dated 1997).
Square brackets hold non-standard residues; d marks the D form. Ends that are not written are not given here. Peptide text beside a SMILES is read from it. * marks the point of attachment. hArg = N=C(N)NCCCC[C@H](N)C(=O)O; Octanoyl = CCCCCCCC(=O)*

Target: not listed separately
Experiment: Inhibition of lipopolysaccharide binding to dye (LPS50)
Set-up: species or system E. coli
Details: concentration of peptide necessary to inhibit the binding of 50% of the lipopolysaccharide to the dye; absorbance at 460 nm and 510 nm
Procedure: A stock solution (10×) of 0.6 mM dye is prepared by adding 1.68 mg of (1-ethyl-2-(3-[1-ethylnaphthol(1,2-d)- thiazolin-2-ylidene]-2-methylpropenyl)naphtho-(1,2-d)-thiazolium bromide (Signa E-7762) to 5 ml of 200 proof ethanol. 1 ml of this solution was added to 9 ml ethanol to give 0.06 mM of dye (60 μM dye).
A stock solution of lipopolysaccharide (LPS) from E. coli serotype 0111:B4 was prepared at 1.5 mg/ml. 400 μl of this solution was mixed with 4.6 ml pyrogen free water to give a 120 μg/ml solution.
Row 1 and rows 3 through 12 of a microtiter plate were filled with 100 μl of pyrogen free water or with 10 mg/ml of bovine serum albumin. 200 μl of peptide then is added to row 2 of the microtiter plate at a concentration of […]. 200 μl of pyrogen free water is added to each of the control wells in two lanes (having dye and LPS but no peptide or having dye and no LPS and no peptide). 100 μl then is serially diluted from row 2 through row 12 of the microtiter plate. 50 μl of PBS (pH 7.4) and 50 μl of the LPS solution then are added to row 1 of the plate (blank wells).
Equal volumes of the LPS solution, the dye, and PBS (pH 7.4, approx. 150 mM) are mixed to form a dye-buffer--LPS mixture having LPS at a final concentration of 40 μg/mi and dye at a final concentration of 20 μM. The dye-buffer LPS mixture then is incubated for 10 minutes at room temperature in the dark.
The plate is incubated for 10 minutes at room temperature in the dark, and the absorbance at 460 nm and 510 nm is read. From these absorbances, the LPS50 value, which is the concentration in mg/ml of peptide necessary to inhibit the binding of 50% of the lipopolysaccharide to the dye, is calculated.

Compared with CCCCCCCC(=O)N[C@@H](CC(C)C)C(=O)N[C@@H](CCCCN)C(=O)N[C@@H](CCCCN)C(=O)N[C@@H](CC(C)C)C(=O)N[C@@H](CCCCN)C(=O)N[C@@H](CCCCN)C(=O)N[C@@H](CC(C)C)C(N)=O [Oct-(SEQ ID NO: 106)-NH2] (Octanoyl-LKKLKKL-NH2), CCCCCCCC(=O)N[C@@H](CC(C)C)C(=O)N[C@@H](CC(C)C)C(=O)N[C@@H](CCCCN)C(=O)N[C@@H](CCCCN)C(=O)N[C@@H](CC(C)C)C(=O)N[C@@H](CCCCN)C(=O)N[C@@H](CCCCN)C(=O)N[C@@H](CC(C)C)C(N)=O [Oct-(SEQ ID NO: 107)-NH2] (Octanoyl-LLKKLKKL-NH2) is 2.2-fold higher in LPS50: 6.80 µg/mL for the first, 15.00 µg/mL for the second.

CCCCCCCC(=O)N[C@@H](CCCCN)C(=O)N[C@@H](CCCCN)C(=O)N[C@@H](CC(C)C)C(=O)N[C@@H](CC(C)C)C(=O)N[C@@H](CCCCN)C(=O)N[C@@H](CCCCN)C(=O)N[C@@H](CC(C)C)C(=O)N[C@@H](CCCCN)C(=O)N[C@@H](CCCCN)C(=O)N[C@@H](CC(C)C)C(N)=O [Oct-(SEQ ID NO: 109)-NH2] (Octanoyl-KKLLKKLKKL-NH2) and CCCCCCCC(=O)N[C@@H](CC(C)C)C(=O)N[C@@H](CCCCN)C(=O)N[C@@H](CCCCN)C(=O)N[C@@H](CC(C)C)C(=O)N[C@@H](CC(C)C)C(=O)N[C@@H](CCCCN)C(=O)N[C@@H](CCCCN)C(=O)N[C@@H](CC(C)C)C(=O)N[C@@H](CCCCN)C(=O)N[C@@H](CCCCN)C(=O)N[C@@H](CC(C)C)C(N)=O [Oct-(SEQ ID NO: 110)-NH2] (Octanoyl-LKKLLKKLKKL-NH2) are within 1.5-fold of each other in LPS50: 0.60 µg/mL for the first, 0.84 µg/mL for the second.

Going from CCCCCCCC(=O)N[C@@H](C)C(=O)N[C@@H](CCCCN)C(=O)N[C@@H](CCCCN)C(=O)N[C@@H](CC(C)C)C(=O)N[C@@H](CC(C)C)C(=O)N[C@@H](CCCCN)C(=O)N[C@@H](CCCCN)C(=O)N[C@@H](CC(C)C)C(=O)N[C@@H](CCCCN)C(=O)N[C@@H](CCCCN)C(=O)N[C@@H](CC(C)C)C(N)=O [Oct-(SEQ ID NO: 111)-NH2] (Octanoyl-AKKLLKKLKKL-NH2) to CCCCCCCC(=O)N[C@@H](CCCCN)C(=O)N[C@@H](Cc1ccccc1)C(=O)N[C@@H](C)C(=O)N[C@@H](CCCCN)C(=O)N[C@@H](Cc1ccccc1)C(=O)N[C@@H](C)C(=O)N[C@@H](CCCCN)C(=O)N[C@@H](CCCCN)C(=O)N[C@@H](Cc1ccccc1)C(=O)N[C@@H](C)C(N)=O [Oct-(SEQ ID NO: 121)-NH2] (Octanoyl-KFAKFAKKFA-NH2), the LPS50 rises from 1.00 µg/mL to 20.00 µg/mL (20-fold).

First: CCCCCCCC(=O)N[C@@H](CCCCN)C(=O)N[C@@H](CCCCN)C(=O)N[C@@H](CC(C)C)C(=O)N[C@@H](C)C(=O)N[C@@H](CCCCN)C(=O)N[C@@H](CC(C)C)C(=O)N[C@@H](C)C(=O)N[C@@H](CCCCN)C(=O)N[C@@H](CCCCN)C(=O)N[C@@H](CC(C)C)C(=O)N[C@@H](C)C(N)=O [Oct-(SEQ ID NO: 123)-NH2] (Octanoyl-KKLAKLAKKLA-NH2)
Second: CCCCCCCC(=O)N[C@@H](CC(C)C)C(=O)N[C@@H](CCCCN)C(=O)N[C@@H](CCCCN)C(=O)N[C@@H](CC(C)C)C(=O)N[C@@H](CC(C)C)C(=O)N[C@@H](CCCCN)C(=O)N[C@@H](CCCCN)C(N)=O [Oct-(SEQ ID NO: 137)-NH2] (Octanoyl-LKKLLKK-NH2)
The LPS50 of the first is 2.8-fold lower: 1.70 µg/mL for the first, 4.80 µg/mL for the second.

CCCCCCCC(=O)N[C@@H](CC(C)C)C(=O)N[C@@H](CCCCN)C(=O)N[C@@H](CCCCN)C(=O)N[C@@H](CC(C)C)C(=O)N[C@@H](CC(C)C)C(=O)N[C@@H](CCCCN)C(=O)N[C@@H](CC(C)C)C(=O)N[C@@H](CC(C)C)C(=O)N[C@@H](CCCCN)C(N)=O [Oct-(SEQ ID NO: 138)-NH2] (Octanoyl-LKKLLKLLK-NH2) and CCCCCCCC(=O)N[C@H](CC(C)C)C(=O)N[C@H](CCCCN)C(=O)N[C@H](CCCCN)C(=O)N[C@H](CC(C)C)C(=O)N[C@H](CC(C)C)C(=O)N[C@H](CCCCN)C(=O)N[C@H](CCCCN)C(=O)N[C@H](CC(C)C)C(=O)N[C@H](CCCCN)C(=O)N[C@H](CCCCN)C(=O)N[C@H](CC(C)C)C(N)=O [Oct-D-(SEQ ID NO: 110)-NH2] (Octanoyl-[dL][dK][dK][dL][dL][dK][dK][dL][dK][dK][dL]-NH2) are within 1.5-fold of each other in LPS50: 1.00 µg/mL for the first, 0.97 µg/mL for the second.

Work on “Oct-D-(SEQ ID NO:110)-NH2 -melibionic acid: Oct-D-(SEQ ID NO:110)-NH2 with melibionic acid, not further explained (Octanoyl-LKKLLKKLKKL-NH2; not fully specified (some residues); also: melibionic acid, not further explained)” yielded an LPS50 of 45.00 µg/mL.

Test system: P. gingivalis
Experiment: Anaerobic antimicrobial susceptibility test (NCCLS M11-T2), P. gingivalis
Type: cell-based
Details: strain W50, BHI broth, 24-48 hours

Compared with CC[C@H](C)[C@H](NC(=O)[C@H](CCCCNC(=N)N)NC(=O)CNC(=O)[C@H](C)NC(=O)[C@@H](NC(=O)[C@H](CCCCNC(=N)N)NC(=O)[C@H](C)NC(=O)[C@@H](NC(=O)[C@H](CCCCNC(=N)N)NC(=O)CNC(=O)[C@H](C)NC(=O)[C@@H](NC(=O)[C@H](CCCCNC(=N)N)NC(=O)[C@H](C)NC(=O)[C@@H](NC(=O)[C@H](CCCCNC(=N)N)NC(=O)CNC(=O)[C@H](C)NC(=O)[C@@H](NC(=O)[C@@H](N)CCCCNC(=N)N)[C@@H](C)CC)[C@@H](C)CC)[C@@H](C)CC)[C@@H](C)CC)[C@@H](C)CC)C(=O)N[C@@H](C)C(N)=O [(SEQ ID NO: 66)-NH2] (H-[hArg]IAG[hArg]IA[hArg]IAG[hArg]IA[hArg]IAG[hArg]IA-NH2), CCCCCCCC(=O)N[C@@H](CCCCN)C(=O)N[C@H](C(=O)N[C@@H](C)C(=O)NCC(=O)N[C@@H](CCCCN)C(=O)N[C@H](C(=O)N[C@@H](C)C(=O)N[C@@H](CCCCN)C(=O)N[C@H](C(=O)N[C@@H](C)C(=O)NCC(=O)N[C@@H](CCCCN)C(=O)N[C@H](C(=O)N[C@@H](C)C(=O)N[C@@H](CCCCN)C(=O)N[C@H](C(=O)N[C@@H](C)C(=O)NCC(=O)N[C@@H](CCCCN)C(=O)N[C@H](C(=O)N[C@@H](C)C(N)=O)[C@@H](C)CC)[C@@H](C)CC)[C@@H](C)CC)[C@@H](C)CC)[C@@H](C)CC)[C@@H](C)CC [Oct-(SEQ ID NO: 27)-NH2] (Octanoyl-KIAGKIAKIAGKIAKIAGKIA-NH2) is higher in “MIC P. gingivalis (strain) W50” value: 4 μl/ml for the first, 16 μl/ml for the second.

Compared with CCCCCCCC(=O)N[C@@H](CCCCN)C(=O)N[C@H](C(=O)N[C@@H](C)C(=O)NCC(=O)N[C@@H](CCCCN)C(=O)N[C@H](C(=O)N[C@@H](C)C(=O)N[C@@H](CCCCN)C(=O)N[C@H](C(=O)N[C@@H](C)C(=O)NCC(=O)N[C@@H](CCCCN)C(=O)N[C@H](C(=O)N[C@@H](C)C(=O)N[C@@H](CCCCN)C(=O)N[C@H](C(=O)N[C@@H](C)C(=O)NCC(=O)N[C@@H](CCCCN)C(=O)N[C@H](C(=O)N[C@@H](C)C(=O)O)[C@@H](C)CC)[C@@H](C)CC)[C@@H](C)CC)[C@@H](C)CC)[C@@H](C)CC)[C@@H](C)CC [Oct-(SEQ ID NO: 27)-OH] (Octanoyl-KIAGKIAKIAGKIAKIAGKIA-OH), CCCCCCCC(=O)N[C@@H](CCCCNC(=N)N)C(=O)N[C@H](C(=O)N[C@@H](C)C(=O)NCC(=O)N[C@@H](CCCCNC(=N)N)C(=O)N[C@H](C(=O)N[C@@H](C)C(=O)N[C@@H](CCCCNC(=N)N)C(=O)N[C@H](C(=O)N[C@@H](C)C(=O)NCC(=O)N[C@@H](CCCCNC(=N)N)C(=O)N[C@H](C(=O)N[C@@H](C)C(=O)N[C@@H](CCCCNC(=N)N)C(=O)N[C@H](C(=O)N[C@@H](C)C(=O)NCC(=O)N[C@@H](CCCCNC(=N)N)C(=O)N[C@H](C(=O)N[C@@H](C)C(N)=O)[C@@H](C)CC)[C@@H](C)CC)[C@@H](C)CC)[C@@H](C)CC)[C@@H](C)CC)[C@@H](C)CC [Oct-(SEQ ID NO: 66)-NH2] (Octanoyl-[hArg]IAG[hArg]IA[hArg]IAG[hArg]IA[hArg]IAG[hArg]IA-NH2) is higher in “MIC P. gingivalis (strain) W50” value: 1 μl/ml for the first, 2 μl/ml for the second.

Going from CCCCCCCC(=O)N[C@@H](CCCCN)C(=O)N[C@H](C(=O)N[C@@H](C)C(=O)N[C@@H](CCCCN)C(=O)N[C@@H](CCCCN)C(=O)N[C@H](C(=O)N[C@@H](C)C(=O)N[C@@H](CCCCN)C(=O)N[C@H](C(=O)N[C@@H](C)C(=O)N[C@@H](CCCCN)C(=O)N[C@@H](CCCCN)C(=O)N[C@H](C(=O)N[C@@H](C)C(=O)N[C@@H](CCCCN)C(=O)N[C@H](C(=O)N[C@@H](C)C(=O)N[C@@H](CCCCN)C(=O)N[C@@H](CCCCN)C(=O)N[C@H](C(=O)N[C@@H](C)C(=O)O)[C@@H](C)CC)[C@@H](C)CC)[C@@H](C)CC)[C@@H](C)CC)[C@@H](C)CC)[C@@H](C)CC [Oct-(SEQ ID NO: 86)-OH] (Octanoyl-KIAKKIAKIAKKIAKIAKKIA-OH) to “KIAGKIAKIAGKIAKIAGKIA-NH2 [(SEQ ID NO: 27)-NH2]”, the “MIC P. gingivalis (strain) W50” value rises from 1 μl/ml to 4 μl/ml.
